Results from ChEMBL document CHEMBL4118098, “Discovery of DS28120313 as a potent orally active hepcidin production inhibitor: Design and optimization of novel 4,6-disubstituted indazole derivatives” (Bioorg Med Chem Lett, 2017).
Each block holds one molecule with its values, some of them ahead of it.

Tests used:
[1] = target: T1, MAP kinase-activated protein kinase 5 (Homo sapiens) (UniProt Q8IW41); assay: Inhibition of PRAK (unknown origin) at 0.45 uM relative to control
T1 sequence (whole entry): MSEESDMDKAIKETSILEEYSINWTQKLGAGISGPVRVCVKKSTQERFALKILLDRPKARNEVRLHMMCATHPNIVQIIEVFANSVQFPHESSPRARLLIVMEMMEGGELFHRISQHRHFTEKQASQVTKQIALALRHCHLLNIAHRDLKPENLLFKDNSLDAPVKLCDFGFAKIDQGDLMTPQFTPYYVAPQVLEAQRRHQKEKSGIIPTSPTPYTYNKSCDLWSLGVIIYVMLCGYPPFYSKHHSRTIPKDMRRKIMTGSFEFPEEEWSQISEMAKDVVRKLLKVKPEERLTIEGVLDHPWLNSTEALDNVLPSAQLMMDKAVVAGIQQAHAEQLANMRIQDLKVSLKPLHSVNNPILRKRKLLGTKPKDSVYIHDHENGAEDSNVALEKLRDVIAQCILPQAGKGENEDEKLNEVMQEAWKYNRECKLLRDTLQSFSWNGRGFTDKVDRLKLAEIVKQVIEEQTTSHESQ

[2] = target: CDK4/Cyclin D3 (Homo sapiens) (UniProt P11802+P30281); assay: Inhibition of CDK4/CyclinD3 (unknown origin) at 0.45 uM relative to control; format: protein-complex assay
[3] = target: RAC-beta serine/threonine-protein kinase (Homo sapiens) (UniProt P31751); assay: Inhibition of AKT2 (unknown origin) at 0.45 uM relative to control
[4] = target: Serine/threonine-protein kinase PAK 2 (Homo sapiens) (UniProt Q13177); assay: Inhibition of PAK2 (unknown origin) at 0.45 uM relative to control
[5] = target: Serine/threonine-protein kinase 4 (Homo sapiens) (UniProt Q13043); assay: Inhibition of MST1 (unknown origin) at 0.164 uM relative to control
[6] = target: STE20-like serine/threonine-protein kinase (Homo sapiens) (UniProt Q9H2G2); assay: Inhibition of SLK (unknown origin) at 0.164 uM relative to control
[7] = system: Proto-oncogene tyrosine-protein kinase receptor Ret (Homo sapiens), P07949 [M918T]; assay: Inhibition of RET M918T mutant (unknown origin) at 0.164 uM relative to control
[8] = target: Mast/stem cell growth factor receptor Kit (Homo sapiens) (UniProt P10721); assay: Inhibition of KIT (unknown origin) at 0.164 uM relative to control
[9] = system: Hepatocyte growth factor receptor (Homo sapiens), P08581 [M1250T]; assay: Inhibition of MET M1250T mutant (unknown origin) at 0.164 uM relative to control
[10] = target: Serine/threonine-protein kinase MARK2 (Homo sapiens) (UniProt Q7KZI7); assay: Inhibition of MARK2 (unknown origin) at 0.164 uM relative to control
[11] = target: Serine/threonine-protein kinase Nek6 (Homo sapiens) (UniProt Q9HC98); assay: Inhibition of NEK6 (unknown origin) at 0.164 uM relative to control
[12] = target: Inhibitor of nuclear factor kappa-B kinase subunit epsilon (Homo sapiens) (UniProt Q14164); assay: Inhibition of IKBKE (unknown origin) at 0.164 uM relative to control
[13] = target: Dual specificity protein kinase CLK2 (Homo sapiens) (UniProt P49760); assay: Inhibition of CLK2 (unknown origin) at 0.164 uM relative to control
[14] = target: Protein kinase C theta type (Homo sapiens) (UniProt Q04759); assay: Inhibition of PKC-theta (unknown origin) at 0.164 uM relative to control
[15] = target: Tyrosine-protein kinase Lck (Homo sapiens) (UniProt P06239); assay: Inhibition of LCK (unknown origin) at 0.164 uM relative to control
[16] = target: Dual specificity tyrosine-phosphorylation-regulated kinase 4 (Homo sapiens) (UniProt Q9NR20); assay: Inhibition of DYRK4 (unknown origin) at 0.164 uM relative to control
[17] = target: Inhibitor of nuclear factor kappa-B kinase subunit beta (Homo sapiens) (UniProt O14920); assay: Inhibition of IKK-beta (unknown origin) at 0.164 uM relative to control
[18] = target: Mitogen-activated protein kinase 11 (Homo sapiens) (UniProt Q15759); assay: Inhibition of p38-beta2 (unknown origin) at 0.164 uM relative to control
[19] = system: Fibroblast growth factor receptor 4 (Homo sapiens), P22455 [V550L]; assay: Inhibition of FGFR4 V550L mutant (unknown origin) at 0.164 uM relative to control
[20] = target: Protein kinase C zeta type (Homo sapiens) (UniProt Q05513); assay: Inhibition of PKC-zeta (unknown origin) at 0.19 uM relative to control
[21] = target: Serine/threonine-protein kinase Nek1 (Homo sapiens) (UniProt Q96PY6); assay: Inhibition of NEK1 (unknown origin) at 0.19 uM relative to control
[22] = system: Hepatocyte growth factor receptor (Homo sapiens), P08581 [M1250T]; assay: Inhibition of MET M1250T mutant (unknown origin) at 0.19 uM relative to control
[23] = target: Tyrosine-protein kinase receptor UFO (Homo sapiens) (UniProt P30530); assay: Inhibition of AXL (unknown origin) at 0.19 uM relative to control
[24] = target: Discoidin domain-containing receptor 2 (Homo sapiens) (UniProt Q16832); assay: Inhibition of DDR2 (unknown origin) at 0.19 uM relative to control
[25] = target: Inhibitor of nuclear factor kappa-B kinase subunit epsilon (Homo sapiens) (UniProt Q14164); assay: Inhibition of IKBKE (unknown origin) at 0.19 uM relative to control
[26] = target: SRSF protein kinase 3 (Homo sapiens) (UniProt Q9UPE1); assay: Inhibition of MSSK1 (unknown origin) at 0.19 uM relative to control
[27] = target: Ephrin type-B receptor 2 (Homo sapiens) (UniProt P29323); assay: Inhibition of EPHB2 (unknown origin) at 0.19 uM relative to control
[28] = target: Tyrosine-protein kinase Fgr (Homo sapiens) (UniProt P09769); assay: Inhibition of FGR (unknown origin) at 0.19 uM relative to control

Sequence of Hepatocyte growth factor receptor (Homo sapiens), P08581 [M1250T] (P08581 whole entry M1250T): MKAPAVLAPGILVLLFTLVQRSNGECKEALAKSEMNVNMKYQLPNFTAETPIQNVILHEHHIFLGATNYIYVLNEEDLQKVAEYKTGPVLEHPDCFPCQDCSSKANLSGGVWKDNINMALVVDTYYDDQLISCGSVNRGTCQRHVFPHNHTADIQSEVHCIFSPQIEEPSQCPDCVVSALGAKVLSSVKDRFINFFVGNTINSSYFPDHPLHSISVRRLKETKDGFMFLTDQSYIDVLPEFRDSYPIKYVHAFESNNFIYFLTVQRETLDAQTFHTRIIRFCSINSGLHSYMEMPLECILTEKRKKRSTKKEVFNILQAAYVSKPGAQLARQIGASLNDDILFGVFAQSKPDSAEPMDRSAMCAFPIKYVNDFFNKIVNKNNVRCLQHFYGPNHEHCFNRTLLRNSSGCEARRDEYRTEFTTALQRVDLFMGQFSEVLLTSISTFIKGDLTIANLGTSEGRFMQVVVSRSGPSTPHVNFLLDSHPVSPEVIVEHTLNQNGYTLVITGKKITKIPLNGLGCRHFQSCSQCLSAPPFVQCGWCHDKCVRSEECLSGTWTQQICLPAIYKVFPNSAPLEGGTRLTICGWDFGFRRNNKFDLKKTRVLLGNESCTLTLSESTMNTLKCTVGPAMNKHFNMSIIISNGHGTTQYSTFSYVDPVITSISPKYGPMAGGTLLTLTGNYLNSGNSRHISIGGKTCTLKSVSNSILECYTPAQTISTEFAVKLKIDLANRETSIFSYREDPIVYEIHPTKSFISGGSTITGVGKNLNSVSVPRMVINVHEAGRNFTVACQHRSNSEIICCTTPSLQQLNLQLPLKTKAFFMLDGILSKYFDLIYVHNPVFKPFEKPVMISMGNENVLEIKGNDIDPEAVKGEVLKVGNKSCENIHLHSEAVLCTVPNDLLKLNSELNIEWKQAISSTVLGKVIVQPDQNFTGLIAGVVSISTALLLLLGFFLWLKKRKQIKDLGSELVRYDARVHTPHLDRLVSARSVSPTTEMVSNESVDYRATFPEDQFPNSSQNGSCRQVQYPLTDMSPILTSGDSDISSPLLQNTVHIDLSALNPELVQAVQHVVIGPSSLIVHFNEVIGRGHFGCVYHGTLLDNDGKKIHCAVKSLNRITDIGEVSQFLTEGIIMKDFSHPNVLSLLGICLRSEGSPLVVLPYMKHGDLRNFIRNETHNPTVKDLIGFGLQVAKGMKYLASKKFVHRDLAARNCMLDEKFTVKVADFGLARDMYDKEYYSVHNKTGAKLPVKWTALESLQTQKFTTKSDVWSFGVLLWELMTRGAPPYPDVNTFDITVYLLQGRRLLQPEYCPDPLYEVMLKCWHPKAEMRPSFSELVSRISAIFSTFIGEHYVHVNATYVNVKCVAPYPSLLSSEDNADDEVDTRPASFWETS
Sequence of Inhibitor of nuclear factor kappa-B kinase subunit epsilon (Homo sapiens) (Q14164 whole entry): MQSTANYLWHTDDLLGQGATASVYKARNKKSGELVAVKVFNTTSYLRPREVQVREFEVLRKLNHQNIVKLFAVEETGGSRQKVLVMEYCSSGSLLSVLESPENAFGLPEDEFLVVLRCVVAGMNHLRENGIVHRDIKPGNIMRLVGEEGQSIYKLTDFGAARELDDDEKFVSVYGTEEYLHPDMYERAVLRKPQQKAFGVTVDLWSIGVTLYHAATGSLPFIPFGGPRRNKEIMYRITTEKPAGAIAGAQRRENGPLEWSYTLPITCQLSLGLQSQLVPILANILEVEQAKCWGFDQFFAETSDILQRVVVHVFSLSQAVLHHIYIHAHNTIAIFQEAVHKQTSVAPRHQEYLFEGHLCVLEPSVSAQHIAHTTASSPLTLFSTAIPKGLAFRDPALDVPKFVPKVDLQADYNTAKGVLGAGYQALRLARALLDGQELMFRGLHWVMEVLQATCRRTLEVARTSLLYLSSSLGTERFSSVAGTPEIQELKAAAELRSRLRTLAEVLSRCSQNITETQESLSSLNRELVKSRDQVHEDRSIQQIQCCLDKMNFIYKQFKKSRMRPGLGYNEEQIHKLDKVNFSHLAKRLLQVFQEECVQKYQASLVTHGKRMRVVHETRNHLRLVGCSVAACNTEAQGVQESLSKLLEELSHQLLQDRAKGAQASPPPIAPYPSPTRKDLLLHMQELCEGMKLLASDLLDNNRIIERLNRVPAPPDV
Sequence of STE20-like serine/threonine-protein kinase (Homo sapiens) (Q9H2G2 whole entry, looked up): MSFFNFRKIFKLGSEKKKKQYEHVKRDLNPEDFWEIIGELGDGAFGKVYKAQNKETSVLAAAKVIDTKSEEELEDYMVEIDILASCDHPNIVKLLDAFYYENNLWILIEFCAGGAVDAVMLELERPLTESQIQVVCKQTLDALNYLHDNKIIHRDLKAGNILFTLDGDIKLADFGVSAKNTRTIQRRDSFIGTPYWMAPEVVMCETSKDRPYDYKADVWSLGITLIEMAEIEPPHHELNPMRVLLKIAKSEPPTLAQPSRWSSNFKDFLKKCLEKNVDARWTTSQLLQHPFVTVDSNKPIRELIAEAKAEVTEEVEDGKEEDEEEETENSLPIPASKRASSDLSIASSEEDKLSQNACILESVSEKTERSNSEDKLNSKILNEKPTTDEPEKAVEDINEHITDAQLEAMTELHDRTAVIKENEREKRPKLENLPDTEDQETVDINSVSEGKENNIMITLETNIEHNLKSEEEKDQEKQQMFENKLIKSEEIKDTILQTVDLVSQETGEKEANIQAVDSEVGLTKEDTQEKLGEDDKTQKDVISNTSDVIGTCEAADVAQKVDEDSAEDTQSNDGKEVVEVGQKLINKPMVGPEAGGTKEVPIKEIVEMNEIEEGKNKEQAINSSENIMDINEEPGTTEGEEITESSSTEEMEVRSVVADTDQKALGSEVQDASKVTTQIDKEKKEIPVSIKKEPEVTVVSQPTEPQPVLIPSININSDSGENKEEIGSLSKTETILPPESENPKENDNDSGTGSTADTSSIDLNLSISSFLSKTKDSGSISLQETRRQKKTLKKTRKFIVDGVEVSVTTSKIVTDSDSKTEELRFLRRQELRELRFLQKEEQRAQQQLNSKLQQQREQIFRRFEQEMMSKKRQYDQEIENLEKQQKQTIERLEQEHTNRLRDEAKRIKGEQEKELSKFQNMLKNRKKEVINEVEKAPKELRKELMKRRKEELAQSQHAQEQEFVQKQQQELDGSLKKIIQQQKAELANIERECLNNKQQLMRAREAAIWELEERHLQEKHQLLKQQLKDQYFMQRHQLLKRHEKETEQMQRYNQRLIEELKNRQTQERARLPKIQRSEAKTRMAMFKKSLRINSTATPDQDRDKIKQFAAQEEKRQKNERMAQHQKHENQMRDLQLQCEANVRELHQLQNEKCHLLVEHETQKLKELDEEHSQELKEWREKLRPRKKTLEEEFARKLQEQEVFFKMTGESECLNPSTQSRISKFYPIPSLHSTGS
Sequence of Serine/threonine-protein kinase Nek1 (Homo sapiens) (Q96PY6 whole entry): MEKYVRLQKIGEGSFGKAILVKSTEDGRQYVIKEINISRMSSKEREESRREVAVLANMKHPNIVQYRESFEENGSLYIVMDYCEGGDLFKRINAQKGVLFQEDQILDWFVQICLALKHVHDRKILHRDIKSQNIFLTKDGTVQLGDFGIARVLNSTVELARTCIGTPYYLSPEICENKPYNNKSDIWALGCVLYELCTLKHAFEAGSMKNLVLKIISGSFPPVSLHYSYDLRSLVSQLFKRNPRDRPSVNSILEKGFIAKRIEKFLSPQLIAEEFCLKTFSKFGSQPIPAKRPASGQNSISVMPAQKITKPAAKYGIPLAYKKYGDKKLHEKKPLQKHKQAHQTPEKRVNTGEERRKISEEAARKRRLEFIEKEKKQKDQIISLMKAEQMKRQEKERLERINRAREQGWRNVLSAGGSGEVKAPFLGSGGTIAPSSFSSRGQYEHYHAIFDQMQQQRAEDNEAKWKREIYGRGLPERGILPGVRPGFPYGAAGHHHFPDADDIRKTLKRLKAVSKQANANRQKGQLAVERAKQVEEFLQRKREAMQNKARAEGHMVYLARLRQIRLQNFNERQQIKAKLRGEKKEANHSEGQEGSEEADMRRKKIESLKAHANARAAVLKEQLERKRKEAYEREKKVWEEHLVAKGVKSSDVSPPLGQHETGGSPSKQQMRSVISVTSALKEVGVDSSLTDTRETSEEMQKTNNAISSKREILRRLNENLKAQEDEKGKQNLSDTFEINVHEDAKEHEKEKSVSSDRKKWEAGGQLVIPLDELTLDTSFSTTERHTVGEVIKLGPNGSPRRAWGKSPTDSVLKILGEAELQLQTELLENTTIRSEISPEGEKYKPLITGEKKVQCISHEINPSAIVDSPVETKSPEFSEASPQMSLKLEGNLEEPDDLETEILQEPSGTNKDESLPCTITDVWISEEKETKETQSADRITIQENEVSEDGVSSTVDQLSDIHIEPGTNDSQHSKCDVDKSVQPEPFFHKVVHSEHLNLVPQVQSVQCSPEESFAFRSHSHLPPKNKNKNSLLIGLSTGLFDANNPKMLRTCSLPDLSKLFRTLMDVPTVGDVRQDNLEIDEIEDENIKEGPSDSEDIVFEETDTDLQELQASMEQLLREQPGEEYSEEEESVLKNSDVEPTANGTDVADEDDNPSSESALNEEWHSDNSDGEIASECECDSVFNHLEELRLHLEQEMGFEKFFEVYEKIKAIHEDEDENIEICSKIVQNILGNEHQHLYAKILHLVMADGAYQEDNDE
Sequence of Serine/threonine-protein kinase PAK 2 (Homo sapiens) (Q13177 whole entry): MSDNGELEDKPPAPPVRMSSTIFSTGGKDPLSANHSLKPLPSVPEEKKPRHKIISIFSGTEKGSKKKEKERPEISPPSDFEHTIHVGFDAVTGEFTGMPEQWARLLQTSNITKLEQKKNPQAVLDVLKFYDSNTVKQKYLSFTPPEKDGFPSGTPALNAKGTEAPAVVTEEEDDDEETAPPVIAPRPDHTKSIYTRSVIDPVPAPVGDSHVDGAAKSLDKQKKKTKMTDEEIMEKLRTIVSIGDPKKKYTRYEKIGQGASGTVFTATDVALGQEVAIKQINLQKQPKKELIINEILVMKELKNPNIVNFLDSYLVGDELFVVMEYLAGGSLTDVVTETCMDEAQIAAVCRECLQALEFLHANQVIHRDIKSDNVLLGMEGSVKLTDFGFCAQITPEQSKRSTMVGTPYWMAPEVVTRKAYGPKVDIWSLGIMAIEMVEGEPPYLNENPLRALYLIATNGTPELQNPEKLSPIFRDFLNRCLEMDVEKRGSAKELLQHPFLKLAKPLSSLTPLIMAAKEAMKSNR

- inhibition [1]: -1.7%
- inhibition [2]: -8.3%
- inhibition [3]: -2%
- inhibition [4]: -2.7%
SMILES: Cc1n[nH]c(C)c1-c1ccc2c(NC(=O)c3ccc(N4CCN(C)CC4)cc3)n[nH]c2c1

- inhibition [5]: -2.3%
- inhibition [6]: 4.7%
- inhibition [7]: 6.7%
- inhibition [8]: 4%
- inhibition [9]: -0.3%
- inhibition [10]: -4.7%
- inhibition [11]: 4.3%
- inhibition [12]: 0.3%
- inhibition [13]: 0.7%
- inhibition [14]: 7%
- inhibition [15]: 17.3%
- inhibition [16]: 2.7%
- inhibition [17]: -3.7%
- inhibition [18]: 1.7%
- inhibition [19]: 1.7%
SMILES: COC(=O)Nc1cc(-c2c(C3CC3)n[nH]c2C)cc2[nH]ncc12

- inhibition [20]: 2.3%
- inhibition [21]: 1.3%
- inhibition [22]: 2%
- inhibition [23]: -2.3%
- inhibition [24]: 5.3%
- inhibition [25]: 1%
- inhibition [26]: -9.3%
- inhibition [27]: 4%
- inhibition [28]: -3%
SMILES: Cc1[nH]nc(C2CC2)c1-c1ccc2c(-c3ccc(N4CCN(C)CC4)nc3)n[nH]c2c1
